# Values of other authors, collected in US20020132021A1, “Elicited plant products” (priority 1997, published 2002).
# Tested on: indole alkaloid pathway
# Settings: jasmonic acid addition, dosage studies
smiles,measurement,value
CC/C=C\C[C@H]1C(=O)CC[C@@H]1CC(=O)O [Jasmonic acid],increase in the specific yield of ajmalicine,80%
same,increase in the specific yield of horhammericine,500%
same,increase in the specific yield of lochnericine,150%
same,increase in the specific yield of serpentine,60%
